Experimental data as given in ChEMBL document CHEMBL6182921, “Structural Optimization of Next-Generation TRK Inhibitors against Acquired Drug Resistance Mutations for the Treatment of Solid Tumors” (J Med Chem, 2025).
pIC50: −log10 of the molar value.

Tests used:
BaF3 [1] = assay: Antiproliferative activity against mouse BaF3 cells harbouring MPRIP-TRKA G595R mutant assessed as inhibition of cell growth measured after 72 hrs by CCK-8 method; format: functional, cell-based; details: BaF3, 72 h
[2] = target: High affinity nerve growth factor receptor (Homo sapiens, UniProt P04629)
Sequence of High affinity nerve growth factor receptor (P04629 whole entry): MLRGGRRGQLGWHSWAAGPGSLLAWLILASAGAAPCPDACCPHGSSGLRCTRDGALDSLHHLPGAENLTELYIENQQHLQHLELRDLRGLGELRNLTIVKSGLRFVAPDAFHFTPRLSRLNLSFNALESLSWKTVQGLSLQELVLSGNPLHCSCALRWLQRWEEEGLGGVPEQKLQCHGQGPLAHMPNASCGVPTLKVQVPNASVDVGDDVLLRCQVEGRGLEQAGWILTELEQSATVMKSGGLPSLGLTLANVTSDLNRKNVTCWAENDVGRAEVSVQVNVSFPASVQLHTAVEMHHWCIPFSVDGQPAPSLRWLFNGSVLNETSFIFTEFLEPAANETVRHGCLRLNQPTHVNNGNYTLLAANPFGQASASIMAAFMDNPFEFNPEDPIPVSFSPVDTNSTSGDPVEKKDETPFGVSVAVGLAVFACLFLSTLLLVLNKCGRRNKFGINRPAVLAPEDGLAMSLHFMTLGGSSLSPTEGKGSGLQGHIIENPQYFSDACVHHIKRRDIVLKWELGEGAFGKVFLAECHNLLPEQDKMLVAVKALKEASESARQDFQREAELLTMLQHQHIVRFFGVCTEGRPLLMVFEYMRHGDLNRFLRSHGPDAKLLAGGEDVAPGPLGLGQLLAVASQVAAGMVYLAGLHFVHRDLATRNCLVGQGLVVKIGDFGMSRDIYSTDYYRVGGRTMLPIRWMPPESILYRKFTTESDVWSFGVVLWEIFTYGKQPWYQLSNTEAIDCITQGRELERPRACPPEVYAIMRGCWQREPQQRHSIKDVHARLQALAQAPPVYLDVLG
Description: Inhibition of TRKA (unknown origin) incubated for 1 hr in presence of ATP by ELISA method

BaF3 [3] = assay: cells; details: Mus musculus, BaF3, 72 h
Description: Antiproliferative activity against mouse BaF3 cells harbouring MPRIP-TRKA G667C mutant assessed as inhibition of cell growth measured after 72 hrs by CCK-8 method

BaF3 [4] = assay: Antiproliferative activity against mouse BaF3 cells harbouring MPRIP-TRKA G595R mutant assessed as inhibition of cell growth at 1000 nmol/L measured after 72 hrs by CCK-8 method relative to control; format: functional
BaF3 [5] = assay: cells; details: Mus musculus, BaF3, 72 h; remark: listed apart in the source
Description: Antiproliferative activity against mouse BaF3 cells harbouring xDFG (TRKA-G667C) mutation measured after 72 hrs by Cell-titer glo assay

BaF3 [6] = format: functional, cell-based; details: Mus musculus

SMILES	pIC50 (BaF3 [1])	pIC50 (BaF3 [3])	pIC50 (BaF3 [5])	further results
CC1CN(Cc2ccc(NC(=O)c3cc(N4CCC[C@@H]4c4cc(F)ccc4F)c[nH]c3=O)cc2)CCN1S(=O)(=O)N1CCOCC1 (stereo not given in full)	< 6.00	6.95	–	pIC50 [2]: 8.80
CCCN(CCC)Cc1ccc(NC(=O)c2cc(N3CCC[C@@H]3c3cc(F)ccc3F)c[nH]c2=O)cc1	–	6.74	–	inhibition at 1 µM (BaF3 [4]): 45.2%
C[C@@H](N)COc1ccc(-c2cnc3ccc(N[C@H](C)c4cccc(F)c4)nn23)cc1 [TALETRECTINIB]	–	–	–	pIC50 (BaF3 [6]): 6.52

The next lines start with results.

pIC50 (BaF3 [1])	pIC50 (BaF3 [3])	pIC50 (BaF3 [5])	SMILES	further results
–	–	7.82	C[C@H]1CNC(=O)c2cnn3ccc(nc23)N[C@H](C)c2cc(F)ccc2O1 [REPOTRECTINIB]	–
7.42	6.77	6.91	C[C@@H]1CCc2ncc(F)cc2[C@H]2CCCN2c2ccn3ncc(c3n2)C(=O)N1 [SELITRECTINIB]	–
